Test results taken from PubChem BioAssay (NCI).
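Following 48 hours of exposure in 96-well plates, responses at five concentrations were used to interpolate endpoints linearly. TGI is the concentration that stops growth completely.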

Columns and labels:
Assay in all cases: NCI anticancer screen, dose series, 48 h
HCT-116 colon = tested on: HCT-116 colon
SK-MEL-5 melanoma = tested on: SK-MEL-5 melanoma
MDA-N = tested on: MDA-N
EKVX NSCLC = tested on: EKVX NSCLC
BT-549 breast = tested on: BT-549 breast
MALME-3M melanoma = tested on: MALME-3M melanoma
HOP-62 NSCLC = tested on: HOP-62 NSCLC
SF-539 CNS = tested on: SF-539 CNS
NCI-H460 lung = tested on: NCI-H460 lung
CAKI-1 renal = tested on: CAKI-1 renal
RPMI-8226 leukemia = tested on: RPMI-8226 leukemia
TK-10 renal = tested on: TK-10 renal
K-562 leukemia = tested on: K-562 leukemia
SNB-75 CNS = tested on: SNB-75 CNS
UACC-257 melanoma = tested on: UACC-257 melanoma

Structure (SMILES) | TGI (HCT-116 colon) [µM] | TGI (SK-MEL-5 melanoma) [µM] | TGI (MDA-N) [µM] | TGI (EKVX NSCLC) [µM] | TGI (BT-549 breast) [µM] | TGI (MALME-3M melanoma) [µM] | TGI (HOP-62 NSCLC) [µM] | TGI (SF-539 CNS) [µM] | TGI (NCI-H460 lung) [µM] | TGI (CAKI-1 renal) [µM] | TGI (RPMI-8226 leukemia) [µM] | TGI (TK-10 renal) [µM] | TGI (K-562 leukemia) [µM] | TGI (SNB-75 CNS) [µM] | TGI (UACC-257 melanoma) [µM]
CCOc1cc(NC(C)=O)ccc1C(=O)NN1C(=O)C(Cl)C1c1ccccc1 (stereo not given) | 38.9 | 23.4 | 32.9 | 28.7 | 25.6 | 25.2 | 44.4 | 35.4 | 33.6 | 30.1 | 28.7 | 31.2 | 23.9 | 29.7 | 28
NC(N)=N/N=C/c1c(-c2ccc(Cl)cc2)nc2sccn12 | 2.95 | 3.19 | 3.33 | 31.2 | 12 | 4.95 | 3.56 | 3.36 | 3.53 | 10.9 | 7.04 | 6.53 | 14.3 | 3.61 | 3.62
CC(C)Cn1cnc2c(NCC(C)O)nc3ccccc3c21 (stereo not given) | > 100 | > 100 | > 100 | > 100 | > 100 | > 100 | > 100 | > 100 | > 100 | > 100 | > 100 | > 100 | > 100 | > 100 | > 100
C=CCN1C(=O)/C(=C/c2ccc(OC)cc2)N=C1SC/C=C/C | > 100 | 39.4 | > 100 | > 100 | > 100 | > 100 | > 100 | > 100 | > 100 | > 100 | > 100 | > 100 | > 100 | > 100 | > 100
CCOC(=O)/C(C#N)=C\c1ccc(N(CCC(=O)O)CCC(=O)O)c(I)c1 | > 10 | > 10 | > 10 | > 10 | > 10 | > 10 | > 10 | > 10 | > 10 | > 10 | > 10 | > 10 | > 10 | > 10 | > 10
OC1(c2cccs2)c2cccc(Cl)c2C(O)(c2cccs2)c2c(Cl)cccc21 (stereo not given) | > 100 | > 100 | > 100 | > 100 | > 100 | > 100 | > 100 | > 100 | > 100 | > 100 | > 100 | > 100 | > 100 | > 100 | > 100
O=C1CCC2C(O)c3cc4c(cc3C(c3ccc5c(c3)OCO5)N12)OCO4 (stereo not given) | > 100 | > 100 | > 100 | > 100 | > 100 | > 100 | 63.7 | > 100 | > 100 | > 100 | > 100 | > 100 | > 100 | 41.5 | > 100
C=CCOc1cccc(C2(O)c3ccccc3C3=NCCCN32)c1 (stereo not given) | 29.6 | 41.9 | 33.1 | > 35.1 | > 100 | 35.1 | 38.8 | 37.6 | 36.7 | > 86.6 | 40.3 | > 100 | > 35.4 | 36.8 | 33.1
C(=C\c1cccs1)/c1cccc(/C=C/c2cccs2)n1 | > 100 | > 100 | > 100 | > 100 | > 100 | 3.21 | > 100 | > 100 | > 100 | > 100 | > 100 | > 100 | > 100 | 79.4 | > 100
Cc1csc2c(=O)n(C3OC(CO)C(O)C3O)c(=O)[nH]c12 (stereo not given) | > 100 | > 100 | > 100 | > 100 | > 100 | > 100 | > 100 | > 100 | > 100 | > 100 | > 100 | > 100 | > 100 | > 100 | > 100
Cc1nc2ccccc2n1COC(Cn1ccnc1)c1ccc(Cl)cc1Cl (stereo not given) | > 100 | 53.5 | > 100 | > 100 | 91.2 | > 100 | > 100 | > 100 | 46.4 | 39 | > 100 | > 100 | > 100 | > 100 | > 100
[N-]=[N+]=Nc1ccccc1C(=O)N1C(=O)c2ccccc2C(=O)N(C(=O)c2ccccc2N=[N+]=[N-])c2ccccc21 | > 100 | > 100 | > 100 | > 100 | > 100 | > 100 | 81 | > 100 | > 100 | > 100 | > 100 | > 100 | > 100 | 64 | > 100
C=CCNC(=O)NC(=O)CSC1=NNC2(C(=O)N1)c1ccccc1-c1ccccc12 | > 10 | > 10 | > 10 | > 10 | > 10 | > 10 | > 10 | > 10 | > 10 | > 10 | > 10 | > 10 | > 10 | > 10 | > 10
Cn1c2ccccc2c2c(-c3ccccc3)cc3c(c21)C(=O)C=CC3=O | 2.91 | > 9.24 | > 7.18 | > 8.39 | 3.04 | 4.17 | > 10 | 4.29 | > 10 | 4.07 | 4.8 | 3.4 | > 3.46 | > 9.66 | 4.62
O=C(CN1CCCCC1)Nc1ccc2sc3ccccc3c(=O)c2n1 | 26.2 | 36.1 | 28.7 | 89.3 | 43.1 | 49 | 33.3 | 31.6 | 36.5 | 37.7 | 45.1 | 50.4 | 52.3 | 32.3 | 39.7
